Source: patent US20120046273A1, “COMPOUNDS AND COMPOSITIONS FOR COGNITION-ENHANCEMENT, METHODS OF MAKING, AND METHODS OF TREATING” (MITHRIDION, INC., priority 2009, published 2012)

Assays:
[1] = molecular target: T1, human muscarinic M3 receptors (Homo sapiens, UniProt P20309); assay: Inositol phosphate production in huM3/A9L cells (IPOne TR-FRET); format: cell-based
T1 construct: expressed in transfected cells; host or cells: A9L cells (gift from Professor W Messer)
In short: (§1)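 A9L cells transfected with human M1 or M3 receptors, grown to 90% confluence, then exposed to compounds in growth medium with 10 mM LiCl and extra 10 mM HEPES (pH7.4) for 60 minutes at 37° C. IP measured in lysates by IPOne TR-FRET; efficacy expressed relative to full agonist at 100%.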

[2] = rat, in vivo, po, 1 hour
human FMO1 Supersomes = molecular target: T2, human FMO1 Supersomes (Homo sapiens, UniProt Q01740); assay: Metabolism by flavin monoxygenase 1 (FMO1) Supersomes; format: in vitro ADME
T2 construct: purchased BD Biosciences 456241
T2 sequence (Q01740 1-532): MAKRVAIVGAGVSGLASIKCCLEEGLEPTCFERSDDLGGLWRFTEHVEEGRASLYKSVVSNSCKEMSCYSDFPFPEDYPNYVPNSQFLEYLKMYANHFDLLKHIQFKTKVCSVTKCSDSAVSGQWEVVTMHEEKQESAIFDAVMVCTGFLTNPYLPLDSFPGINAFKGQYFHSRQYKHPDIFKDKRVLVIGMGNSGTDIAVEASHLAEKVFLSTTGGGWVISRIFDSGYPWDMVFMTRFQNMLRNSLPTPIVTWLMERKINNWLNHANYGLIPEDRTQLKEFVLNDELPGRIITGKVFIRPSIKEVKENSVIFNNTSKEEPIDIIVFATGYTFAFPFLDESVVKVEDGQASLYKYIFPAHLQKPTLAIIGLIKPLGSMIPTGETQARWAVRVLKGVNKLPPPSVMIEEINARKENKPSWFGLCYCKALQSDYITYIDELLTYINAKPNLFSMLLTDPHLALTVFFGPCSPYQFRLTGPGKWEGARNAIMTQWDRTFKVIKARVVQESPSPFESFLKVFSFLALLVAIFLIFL
Procedure: […] Aliquots were removed every 10 minutes, and 1% formic acid was added to halt the reaction. Samples were centrifuged, filtered through 0.2 micron spinfilter and the amount of each compound in the supernatants was quantitated using LC/MS/MS.

[3] = molecular target: T3, human muscarinic M1 receptors (Homo sapiens, UniProt P11229); assay: Inositol phosphate production in huM1/A9L cells (IPOne TR-FRET); format: cell-based
T3 construct: expressed in transfected cells; host or cells: A9L cells (gift from Professor W Messer)
T3 sequence (P11229 1-460): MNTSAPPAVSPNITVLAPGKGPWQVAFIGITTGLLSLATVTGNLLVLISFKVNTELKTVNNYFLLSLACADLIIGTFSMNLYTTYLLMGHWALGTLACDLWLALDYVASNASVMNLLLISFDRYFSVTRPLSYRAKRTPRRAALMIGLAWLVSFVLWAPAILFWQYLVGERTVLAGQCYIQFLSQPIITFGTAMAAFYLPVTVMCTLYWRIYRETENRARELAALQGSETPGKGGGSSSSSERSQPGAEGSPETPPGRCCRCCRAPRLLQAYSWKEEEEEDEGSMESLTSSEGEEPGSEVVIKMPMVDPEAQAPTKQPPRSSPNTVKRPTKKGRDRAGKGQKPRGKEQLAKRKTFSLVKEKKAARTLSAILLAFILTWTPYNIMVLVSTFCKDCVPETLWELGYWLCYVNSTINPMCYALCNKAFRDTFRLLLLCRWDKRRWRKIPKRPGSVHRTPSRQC
In short: as §1

[4] = tested on: pooled male Sprague-Dawley rat liver microsomes; assay: Metabolism by rat liver microsomes; format: in vitro ADME; conditions: 6 hours incubation
Procedure: Compounds were incubated with pooled male Sprague-Dawley rat liver microsomes (BD Biosciences, #452501) and an NADP-regenerating system in a phosphate buffer (pH 7.4) for a total of 6 hours. Aliquots were removed every 2 hours, and 1% formic acid was added to halt the reaction. Samples were centrifuged, filtered through 0.2 micron spinfilter and the amount of each compound in the supernatants was quantitated using LC/MS/MS.

[5] = tested on: apomorphine induced climbing; assay: Apomorphine induced climbing model of psychosis; format: in vivo, CD-I mice
Procedure: As described in Costall et. al. European Journal of Pharmacology 1978, 50, 39. individual CD-I mice, 1-2 months old, were placed in a cylindrical wire mesh cage (13.2 cm high×13.2 cm diameter) constructed of steel wire 1 mm thick spaced at 1.2 cm^2. Cylinders were placed in a standard OptiMICE mouse cage (29×32×9×29 cm wide and 14 cm high) with adequate wood chip bedding provided. Observations of climbing (defined as 3 or more paws off the ground) were carried out every 5 minutes at a duration of 1 minute for 30 minutes. Animals were injected subcutaneously under isoflurane anesthesia with test compounds, reference compounds, which included clozapine, haloperidol, olanzapine and xanomeline, or PBS as a control. This was followed 5 minutes later by 2 mg/kg apomorphine hydrochloride. All drugs were dissolved in PBS or a mixture of (by volume) 96% PBS and 4% hydroxypropyl-beta-cyclodextrin, and dosed at a rate of 5 ml per kilogram of body weight. Following injections, animals were replaced in the mesh cages and observed for climbing (defined as 3 or more paws off the ground) every 5 minutes for a duration of 1 minute for 60 minutes after dosing.

in vivo = conditions: rat, po
[6] = tested on: A-beta 1-40 and A-beta 1-42; assay: A-beta in hippocampal microdialysate; format: in vivo, Tg-2576 transgenic mice; conditions: Tg-2576 mice
From the text: These mice have high concentrations of A-beta in their brain tissue, thought to be the cause of neuron death in Alzheimer's disease, and accumulate amyloid plaques, recapitulating one of the hallmark pathological features of Alzheimer's disease.

[7] = percentage of maximal stimulation by carbachol

T1 sequence (P20309 whole entry): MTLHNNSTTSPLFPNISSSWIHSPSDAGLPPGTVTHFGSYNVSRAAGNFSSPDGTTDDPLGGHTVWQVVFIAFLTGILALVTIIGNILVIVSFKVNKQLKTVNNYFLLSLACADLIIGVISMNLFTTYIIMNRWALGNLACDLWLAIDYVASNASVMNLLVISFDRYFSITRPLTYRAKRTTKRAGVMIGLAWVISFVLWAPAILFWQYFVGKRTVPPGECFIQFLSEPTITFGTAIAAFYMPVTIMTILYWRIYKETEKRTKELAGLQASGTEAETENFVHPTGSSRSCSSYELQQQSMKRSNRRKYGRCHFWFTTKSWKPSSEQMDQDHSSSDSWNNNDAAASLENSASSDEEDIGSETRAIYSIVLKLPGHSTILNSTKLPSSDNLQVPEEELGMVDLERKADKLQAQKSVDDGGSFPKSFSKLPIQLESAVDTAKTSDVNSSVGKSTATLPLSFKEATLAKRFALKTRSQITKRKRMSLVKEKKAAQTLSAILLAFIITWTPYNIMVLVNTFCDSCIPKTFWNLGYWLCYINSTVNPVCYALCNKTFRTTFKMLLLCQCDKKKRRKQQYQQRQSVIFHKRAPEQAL

Structure (SMILES): Cc1noc(C2CCCNC2)n1 (racemic) [Compound 82, 3-Methyl-5-(piperidin-3-yl)-1,2,4-oxadiazole]
- huM3/A9L Smax [1, 7]: 54%
- huM3/A9L ED50 relative to CCh ([1]; potency relative to carbachol): +/− (potency 0.5-2x CCh)
- Brain/plasma ratio [2]: 2.38
- extent of metabolism in FMO Supersomes (human FMO1 Supersomes): less than half metabolized
- PAMPA (? × 106): 2.56 ? × 106
- rate of crossing the lipid layer in the PAMPA test: much higher rate
- huM1/A9L Smax [3, 7]: 108%
- huM1/A9L ED50 relative to CCh ([3]; potency relative to carbachol): + (potency 2-10x CCh)
- extent of metabolism in rat liver microsomes [4]: far more stable than compounds 126 and 127
- Climbing Mean ([5]; 82 (0.1 mg/kg) + APO): 8.9 s
- Climbing Mean ([5]; 82 + APO + N-Methyl Scopolamine (0.3 mg/kg)): 12.3 s
- Climbing Mean ([5]; 82 + APO + scopolamine (0.3 mg/kg)): 47.0 s
- activity in the apomorphine induced climbing model ([5]; mice, sc): highly active and highly potent
- potency in inhibiting climbing compared with haloperidol ([5]; mice, sc): equipotent to haloperidol
- Kp at 1 hour (in vivo): 2.38
- reduction of the concentration of A-beta 1-40 [6]: approximately 40%
- reduction of the concentration of A-beta 1-42 [6]: approximately 40%
